# pIC50: −log10 of the molar value.
# How the values were obtained:
# [1] = system: K562 cells; experiment: Antiproliferative effect on K562 cells (cell number after 5 days); type: cell-based; settings: Homo sapiens, 120 h, 5 days culture, average of three experiments
# Experimental: (§1) The biological activity of the compounds of the present application was evaluated by examining the capacity to modulate the expression of γ-globin genes in the human K562 cell line, which is capable of differentiating in the erythroid manner by expressing genes for γ-globin if treated with modifiers of the biological response that are suitable for the purpose (Bianchi et al, J. Haematol., 113, 4, p. 951-961, 2001). The human K562 cells were cultured in RPMI 1640 medium (Sigma, St Louis, Mo., USA) supplemented with 10% foetal bovine serum (FBS; Analitical de Mori, Milan, Italy), 100 units/mL penicillin and 100 μg/mL streptomycin. Cell growth was determined according to cell number/ml, using a cell counter (Coulter Electronics, Hialeah, Fla., USA). For experiments, K562 cell cultures were initiated at 3×10^4/mL and the chemical inducers at the indicated concentrations added. Following 3-5 days incubation without a medium change erythroid differentiation was determined by staining the cells in a solution containing 0.2% benzidine in 0.5 M glacial acetic acid, 10% H2O2. Benzidine positivity indicates the presence of intracellular Hb.
# (§2) The erythroid differentiation of K562 cells was investigated following treatment with selected compounds of the invention. The effect on cell proliferation was first determined for all tested molecules by culture of K562 cells in the presence of increasing concentration of the compounds. The cell number per sample was then determined after 3, 4 and 5 days. The IC50 values reported in Table 3 for the antiproliferative effect were calculated from the concentration of the compounds necessary to decrease the cell number to 50% of the values obtained in control untreated K562 cell cultures, after a 5 days culture period. Erythroid differentiation was measured by benzidine staining after 5, 6 and 7 days of cell culture and by quantitative reverse transcriptase polymerase-chain reaction (RT-qPCR) to quantify the expression of γ-globin mRNA. Different concentrations of tested compounds were employed because of their differing antiproliferative effects; accordingly, concentrations were chosen to maximize the erythroid induction effect without extensive reduction of cell viability. In Table 3 the % of benzidine positive cells and the increase in γ-globin mRNA assayed by RT-qPCR after 6 days of culture period are reported.
# [2] = system: K562 cells; experiment: Erythroid differentiation of K562 cells by benzidine staining; type: cell-based, human
# Experimental: as §1, §2
# Table 4 reports induction of erythroid differentiation in K562 cells treated with an optimized concentration of the compound 2 in comparison with known inducers. Compound 2 is able to stimulate an increase of the proportion of benzidine-positive (hemoglobin producing) K562 cells. This is associated with an increase of the expression of γ-globin mRNA.
# [3] = system: γ-globin mRNA in K562 cells; experiment: γ-globin mRNA in K562 cells by quantitative RT-PCR; type: cell-based, human; settings: 6 days
# Experimental: The expression of the genes encoding for γ-globin was evaluated by quantitative RT-PCR. The analyses were carried out on material extracted from cells treated for 6 days in the conditions indicated.
# Total RNA was extracted from cells by the use of TRI Reagent RNA isolation Reagent (Sigma Aldrich). All solutions and laboratory equipment were certified RNAse free. Following the manufacturers instructions, 1 mL of the reagent was added to 5*10^6 cells. After a 3 minute incubation at room temperature, 20 μg of glycogen and 200 μL of chloroform were added. The samples were then centrifuged and the aqueous phase recovered. This phase was diluted with one volume of isopropanol and centrifuged at 4° C. to let the RNA precipitate. After a washing step with methanol, the extracted RNA was dried and then resuspended in RNAse free water. The purified RNAs were stored at −80° C.
# In order to determine the quality of the extracted RNA, electrophoresis runs on 0.8% agarose gel were carried out. The amount of the recovered RNA was quantified by its absorbance at 260 nm. Protein contamination quality control was carried out by ensuring that the 260/280 nm absorbance ratio was greater than 1.8
# cDNA production from the extracted RNA was carried out as per ImProm-II™ Reverse Transcription System (Promega). 0.5 μg di RNA was retro-transcribed by using random hexamer. The produced cDNA was then stored at −80° C. until use.
# The expression of the genes encoding for γ-globin was evaluated by quantitative RT-PCR, using the following primer and probe oligonucleotides (FAM=6-carboxy fluorescein, TAMRA=6-carboxy-N,N,N′,N′-tetramethylrhodamine):
# For real-time PCR analysis we used as reference gene the endogenous control human GAPDH kit (Applied Biosystems).
# as §2
# [4] = system: HDAC in Hela cells; experiment: HDAC Hela Cell Based assay
smiles,measurement,setting,value
"CCC(=O)CCCCC[C@H](NC(=O)c1cnc(CN2CCCC2)s1)c1ncc(-c2cc3ccccc3nc2OC)o1 [Compound 82, (S)-N-(1-(5-(2-methoxyquinolin-3-yl)oxazol-2-yl)-7-oxononyl)-2-(pyrrolidin-1-ylmethyl)thiazole-5-carboxamide]",pIC50,[1],< 6.40
same,% of benzidine positive cells after 6 days,[2]; 260 nM,4.5%
same,γ-globin mRNA content (fold induction),[3]; 260 nM,0.96 fold induction
same,pIC50,[4],> 7.00
"CCC(=O)CCCCC[C@H](NC(=O)C(=O)N1CCN(C)CC1)c1ncc(-c2cc3ccccc3nc2OC)o1 [Compound 37, (S)-N-(1-(5-(2-methoxyquinolin-3-yl)oxazol-2-yl)-7-oxononyl)-2-(4-methylpiperazin-1-yl)-2-oxoacetamide]",pIC50,[1],6.22
same,% of benzidine positive cells after 6 days,[2]; 1600 nM,16%
same,γ-globin mRNA content (fold induction),[3]; 1600 nM,7.84 fold induction
same,pIC50,[4],6.00 to 7.00
"CCC(=O)CCCCC[C@H](NC(=O)c1cncs1)c1ncc(-c2cc3ccccc3n(C)c2=O)o1 [Compound 110, (S)-N-(1-(5-(1-methyl-2-oxo-1,2-dihydroquinolin-3-yl)oxazol-2-yl)-7-oxononyl)thiazole-5-carboxamide]",pIC50,[1],6.70
same,% of benzidine positive cells after 6 days,[2]; 300 nM,5%
same,γ-globin mRNA content (fold induction),[3]; 300 nM,1.19 fold induction
same,pIC50,[4],> 7.00
"CCC(=O)CCCCC[C@H](NC(=O)CCN(C)C)c1ncc(-c2cc3ccccc3n(C)c2=O)o1 [Compound 106, (S)-3-(dimethylamino)-N-(1-(5-(1-methyl-2-oxo-1,2-dihydroquinolin-3-yl)oxazol-2-yl)-7-oxononyl)propanamide]",pIC50,[1],7.39
same,% of benzidine positive cells after 6 days,[2]; 60 nM,8.5%
same,γ-globin mRNA content (fold induction),[3]; 60 nM,2.01 fold induction
same,pIC50,[4],> 7.00
"CCC(=O)CCCCC[C@H](NC(=O)C1(N(C)C)CCCC1)c1ncc(-c2cc3ccccc3n(C)c2=O)o1 [Compound 111, (S)-1-(dimethylamino)-N-(1-(5-(1-methyl-2-oxo-1,2-dihydroquinolin-3-yl)oxazol-2-yl)-7-oxononyl)cyclopentanecarboxamide]",pIC50,[1],7.33
same,% of benzidine positive cells after 6 days,[2]; 60 nM,6%
same,γ-globin mRNA content (fold induction),[3]; 60 nM,2.51 fold induction
same,pIC50,[4],> 7.00
"CCC(=O)CCCCC[C@H](NC(=O)C1(F)CN(C)C1)c1ncc(-c2cc3ccccc3nc2OC)o1 [Compound 67, (S)-3-fluoro-N-(1-(5-(2-methoxyquinolin-3-yl)oxazol-2-yl)-7-oxononyl)-1-methylazetidine-3-carboxamide]",pIC50,[1],6.02
same,% of benzidine positive cells after 6 days,[2]; 1800 nM,12%
same,γ-globin mRNA content (fold induction),[3]; 1800 nM,5.08 fold induction
same,pIC50,[4],6.00 to 7.00
"CCC(=O)CCCCC[C@H](NC(=O)Cn1nc(C)nc1C)c1ncc(-c2cc3ccccc3nc2OC)o1 [Compound 80, (S)-2-(3,5-dimethyl-1H-1,2,4-triazol-1-yl)-N-(1-(5-(2-methoxyquinolin-3-yl)oxazol-2-yl)-7-oxononyl)acetamide]",pIC50,[1],6.60
same,% of benzidine positive cells after 6 days,[2]; 200 nM,1%
same,γ-globin mRNA content (fold induction),[3]; 200 nM,1.03 fold induction
same,pIC50,[4],6.00 to 7.00
"CCC(=O)CCCCC[C@H](NC(=O)C1CN(C)C1)c1ncc(-c2cc3ccccc3n(C)c2=O)o1 [Compound 92, (S)-1-methyl-N-(1-(5-(1-methyl-2-oxo-1,2-dihydroquinolin-3-yl)oxazol-2-yl)-7-oxononyl)azetidine-3-carboxamide]",pIC50,[1],7.30
same,% of benzidine positive cells after 6 days,[2]; 40 nM,8%
same,γ-globin mRNA content (fold induction),[3]; 40 nM,1.24 fold induction
same,pIC50,[4],> 7.00
"CCC(=O)CCCCC[C@H](NC(=O)C1CN(C)C1)c1ncc(-c2cc3ccccc3nc2OC)o1 [Compound 2, (S)-N-(1-(5-(2-methoxyquinolin-3-yl)oxazol-2-yl)-7-oxononyl)-1-methylazetidine-3-carboxamide]",pIC50,[1],7.12
same,% of benzidine positive cells after 6 days,[2]; 70 nM,10%
same,Benzidine positive cells (%),"[2]; optimized concentration, mean ± SD of six experiments",25 ± 3.5%
same,γ-globin mRNA content (fold induction),[3]; 70 nM,1.75 fold induction
same,pIC50,[4],> 7.00
"CCC(=O)CCCCC[C@H](NC(=O)C(C)(C)N(C)C)c1ncc(-c2cc3ccccc3n(C)c2=O)o1 [Compound 107, (S)-2-(dimethylamino)-2-methyl-N-(1-(5-(1-methyl-2-oxo-1,2-dihydroquinolin-3-yl)oxazol-2-yl)-7-oxononyl)propanamide]",pIC50,[1],7.62
same,% of benzidine positive cells after 6 days,[2]; 40 nM,2%
same,γ-globin mRNA content (fold induction),[3]; 40 nM,1.87 fold induction
same,pIC50,[4],> 7.00
"CCC(=O)CCCCC[C@H](NC(=O)C1CCN(C)CC1)c1ncc(-c2cc3ccccc3n(C)c2=O)o1 [Compound 109, (S)-1-methyl-N-(1-(5-(1-methyl-2-oxo-1,2-dihydroquinolin-3-yl)oxazol-2-yl)-7-oxononyl)piperidine-4-carboxamide]",pIC50,[1],< 7.30
same,% of benzidine positive cells after 6 days,[2]; 60 nM,1.5%
same,γ-globin mRNA content (fold induction),[3]; 60 nM,1.31 fold induction
same,pIC50,[4],> 7.00

# Source: patent US9371295B2, “Compounds for use in the treatment of disorders that are ameliorated by inhibition of HDAC” (IRBM—Science Park S.p.A., priority 2012, dated 2016)
